Experimental data reported in publication PMC7002685, “Inhibition of vascular calcification by inositol phosphates derivatized with ethylene glycol oligomers” (Nature Communications, 2020).

Tests used:
Chemokine CCR1 = target: T1, Chemokine CCR1 (Homo sapiens, UniProt P32246); experiment: Off-target 217510; assay type: binding
T1 construct: purchased Eurofins Panlabs Discovery Services Taiwan, Ltd
Method: (§1) The potential off-target activity of 10 µM (OEG2)2-IP4 was assessed against a panel of 87 enzymes, receptors, or ion channels that are used in standard safety pharmacology screens.
(§2) 3.2. Off-target screening assay
(§3) The experiments were conducted by a contract research organization (Eurofins Panlabs Discovery
(§4) Services Taiwan, Ltd.) and details on the respective assays can be retrieved via the catalog number
(§5) provided in Supplementary Table 11 from the company’s webpage
(§6) (https://www.eurofinsdiscoveryservices.com/). […]

[1] = target: T2, Serotonin (5-Hydroxytryptamine) 5-HT2B (Homo sapiens, UniProt P41595); experiment: Off-target 271700; assay type: binding
T2 construct: purchased Eurofins Panlabs Discovery Services Taiwan, Ltd
T2 sequence (P41595 whole entry): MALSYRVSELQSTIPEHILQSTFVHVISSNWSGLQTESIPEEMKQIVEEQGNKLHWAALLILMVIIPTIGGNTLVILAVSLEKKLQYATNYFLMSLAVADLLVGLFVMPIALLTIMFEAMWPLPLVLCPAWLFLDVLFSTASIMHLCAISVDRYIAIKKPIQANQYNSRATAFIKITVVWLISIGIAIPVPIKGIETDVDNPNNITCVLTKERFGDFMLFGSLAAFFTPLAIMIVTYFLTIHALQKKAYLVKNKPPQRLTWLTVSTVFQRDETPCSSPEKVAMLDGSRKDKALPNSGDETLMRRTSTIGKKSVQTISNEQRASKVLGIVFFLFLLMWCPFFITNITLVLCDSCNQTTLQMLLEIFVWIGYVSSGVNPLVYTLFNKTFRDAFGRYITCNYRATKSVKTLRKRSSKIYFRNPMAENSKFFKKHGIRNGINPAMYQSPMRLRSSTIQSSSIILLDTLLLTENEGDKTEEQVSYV
Method: as §1, §2
(§7) The experiments were conducted by a contract research organization (Eurofins Panlabs Discovery Services Taiwan, Ltd.) and details on the respective assays can be retrieved via the catalog number provided in Supplementary Table 11 from the company’s webpage
as §6
(§8) At sacrifice the left tibia of animals of the rat model with dietary adenine/high-phosphate-induced uremia and VC was collected, fixed with 70% v/v EtOH and embedded in methyl methacrylate. The trabecular bone compartment is known to be the most metabolic active i.e. actively re-structured bone compartment in CKD. Therefore, histomorphometric and micro-computed tomography (µCT) analysis of bone was performed on the trabecular compartment. Tibial sections were Goldner-stained for histomorphometric analysis of the proximal metaphysis using the AxioVision Release 4.5 software, as […]
(§9) described previously5. […]

Opiate δ1 (OP1, DOP) = target: T3, Opiate δ1 (OP1, DOP) (Homo sapiens, UniProt P41143); experiment: Off-target 260130; assay type: binding
T3 construct: purchased Eurofins Panlabs Discovery Services Taiwan, Ltd
T3 sequence (P41143 whole entry): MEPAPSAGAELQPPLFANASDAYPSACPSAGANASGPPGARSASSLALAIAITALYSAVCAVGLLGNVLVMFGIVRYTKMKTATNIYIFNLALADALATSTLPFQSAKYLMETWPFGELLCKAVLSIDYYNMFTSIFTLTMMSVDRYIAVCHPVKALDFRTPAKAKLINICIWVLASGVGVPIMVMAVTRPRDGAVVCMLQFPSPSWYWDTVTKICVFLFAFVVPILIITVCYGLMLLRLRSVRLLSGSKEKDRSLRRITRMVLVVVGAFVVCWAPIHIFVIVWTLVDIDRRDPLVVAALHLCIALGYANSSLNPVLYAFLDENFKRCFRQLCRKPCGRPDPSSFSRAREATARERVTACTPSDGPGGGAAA
Method: as §1, §2, §3, §4, §5, §6

Cyclooxygenase COX-2 = target: T4, Cyclooxygenase COX-2 (Homo sapiens, UniProt P35354); experiment: Off-target 118010; assay type: biochemical
T4 construct: purchased Eurofins Panlabs Discovery Services Taiwan, Ltd
T4 sequence (P35354 18-604): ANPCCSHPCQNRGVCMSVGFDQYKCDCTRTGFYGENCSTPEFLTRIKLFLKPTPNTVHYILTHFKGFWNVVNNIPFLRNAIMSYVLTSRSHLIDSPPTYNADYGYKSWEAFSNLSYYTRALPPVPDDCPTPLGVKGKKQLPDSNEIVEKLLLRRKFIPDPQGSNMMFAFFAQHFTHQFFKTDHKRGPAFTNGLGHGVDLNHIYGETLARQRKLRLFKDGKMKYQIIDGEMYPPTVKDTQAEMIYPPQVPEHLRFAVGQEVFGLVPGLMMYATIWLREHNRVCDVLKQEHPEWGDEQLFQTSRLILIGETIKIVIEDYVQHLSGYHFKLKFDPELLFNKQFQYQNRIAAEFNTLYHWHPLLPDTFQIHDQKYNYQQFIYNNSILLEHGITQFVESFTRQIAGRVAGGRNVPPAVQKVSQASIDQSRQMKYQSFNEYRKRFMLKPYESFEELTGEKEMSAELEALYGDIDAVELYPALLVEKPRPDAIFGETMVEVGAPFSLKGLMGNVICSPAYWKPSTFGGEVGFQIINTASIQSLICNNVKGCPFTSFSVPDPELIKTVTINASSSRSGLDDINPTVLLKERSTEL
Method: as §1, §2, §7, §6, §8, §9

Cyclooxygenase COX-1 = target: T5, Cyclooxygenase COX-1 (Homo sapiens, UniProt P23219); experiment: Off-target 116020; assay type: biochemical
T5 construct: purchased Eurofins Panlabs Discovery Services Taiwan, Ltd
Method: as §1, §2, §3, §4, §5, §6

Dopamine D2S = target: T6, Dopamine D2S (Homo sapiens, UniProt P14416); experiment: Off-target 219700; assay type: binding
T6 construct: purchased Eurofins Panlabs Discovery Services Taiwan, Ltd
T6 sequence (P14416 1-414 isoform P14416-2): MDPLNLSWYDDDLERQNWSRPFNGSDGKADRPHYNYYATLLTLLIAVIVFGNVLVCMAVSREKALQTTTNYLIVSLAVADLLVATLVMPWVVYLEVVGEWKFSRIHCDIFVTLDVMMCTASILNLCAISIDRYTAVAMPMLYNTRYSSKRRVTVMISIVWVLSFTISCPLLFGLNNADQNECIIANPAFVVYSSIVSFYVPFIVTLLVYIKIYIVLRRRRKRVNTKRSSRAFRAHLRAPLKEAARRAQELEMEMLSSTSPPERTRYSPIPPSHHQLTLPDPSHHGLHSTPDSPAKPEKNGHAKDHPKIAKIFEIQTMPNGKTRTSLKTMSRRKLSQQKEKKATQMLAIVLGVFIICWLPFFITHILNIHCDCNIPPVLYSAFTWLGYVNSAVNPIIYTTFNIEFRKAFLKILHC
Method: as §1, §2, §7, §6, §8, §9

Tachykinin NK1 = target: T7, Tachykinin NK1 (Homo sapiens, UniProt P25103); experiment: Off-target 255520; assay type: binding
T7 construct: purchased Eurofins Panlabs Discovery Services Taiwan, Ltd
T7 sequence (P25103 whole entry): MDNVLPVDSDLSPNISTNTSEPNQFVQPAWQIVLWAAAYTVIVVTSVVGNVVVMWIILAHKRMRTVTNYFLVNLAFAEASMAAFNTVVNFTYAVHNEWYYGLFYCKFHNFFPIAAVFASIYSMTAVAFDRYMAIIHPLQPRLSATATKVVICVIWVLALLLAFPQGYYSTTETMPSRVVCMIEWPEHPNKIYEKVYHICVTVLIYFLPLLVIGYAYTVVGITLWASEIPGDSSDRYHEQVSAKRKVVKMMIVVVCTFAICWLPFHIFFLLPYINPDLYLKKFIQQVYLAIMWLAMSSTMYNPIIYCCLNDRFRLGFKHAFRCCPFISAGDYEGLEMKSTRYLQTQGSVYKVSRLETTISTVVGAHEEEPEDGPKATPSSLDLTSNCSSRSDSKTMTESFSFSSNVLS
Method: as §1, §2, §7, §6, §8, §9

Melanocortin MC1 = target: T8, Melanocortin MC1 (Homo sapiens, UniProt Q01726); experiment: Off-target 251100 (MC1); assay type: binding
T8 construct: purchased Eurofins Panlabs Discovery Services Taiwan, Ltd
T8 sequence (Q01726 whole entry): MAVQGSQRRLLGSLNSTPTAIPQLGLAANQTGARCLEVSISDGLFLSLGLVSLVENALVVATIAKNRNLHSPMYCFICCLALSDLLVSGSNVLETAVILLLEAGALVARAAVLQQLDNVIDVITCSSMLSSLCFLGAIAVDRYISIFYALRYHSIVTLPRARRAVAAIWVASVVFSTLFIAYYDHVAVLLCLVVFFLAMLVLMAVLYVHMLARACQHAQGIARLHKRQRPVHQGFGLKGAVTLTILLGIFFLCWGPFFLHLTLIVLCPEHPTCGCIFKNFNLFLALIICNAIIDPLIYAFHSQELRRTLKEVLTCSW
Method: as §1, §2, §7, §6, §8, §9

[2] = target: T9, Serotonin (5-Hydroxytryptamine) 5-HT3 (Homo sapiens, UniProt P46098); experiment: Off-target 271910; assay type: binding
T9 construct: purchased Eurofins Panlabs Discovery Services Taiwan, Ltd
Method: as §1, §2, §3, §4, §5, §6

[3] = target: T10, Transporter, Dopamine (DAT) (Homo sapiens, UniProt Q01959); experiment: Off-target 220320; assay type: binding
T10 construct: purchased Eurofins Panlabs Discovery Services Taiwan, Ltd
T10 sequence (Q01959 whole entry): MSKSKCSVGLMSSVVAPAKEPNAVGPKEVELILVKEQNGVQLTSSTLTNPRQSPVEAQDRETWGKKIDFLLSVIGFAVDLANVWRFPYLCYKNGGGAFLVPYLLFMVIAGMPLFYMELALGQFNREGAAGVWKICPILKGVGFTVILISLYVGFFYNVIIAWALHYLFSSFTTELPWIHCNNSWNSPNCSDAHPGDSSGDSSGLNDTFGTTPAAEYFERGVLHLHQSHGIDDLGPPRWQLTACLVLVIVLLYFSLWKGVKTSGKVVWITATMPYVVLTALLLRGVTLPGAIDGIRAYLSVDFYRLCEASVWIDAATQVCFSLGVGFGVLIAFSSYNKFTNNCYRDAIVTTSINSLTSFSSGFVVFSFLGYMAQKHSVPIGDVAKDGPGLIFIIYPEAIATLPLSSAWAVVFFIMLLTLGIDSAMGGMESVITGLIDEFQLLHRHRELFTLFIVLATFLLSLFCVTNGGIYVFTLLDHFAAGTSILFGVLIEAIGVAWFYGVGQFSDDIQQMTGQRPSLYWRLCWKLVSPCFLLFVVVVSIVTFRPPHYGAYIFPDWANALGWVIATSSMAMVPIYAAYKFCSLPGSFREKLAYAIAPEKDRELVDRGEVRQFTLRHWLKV
Method: as §1, §2, §3, §4, §5, §6

Potassium Channel [KATP] = experiment: Off-target 265600; assay type: binding, Hamster; conditions: 10 µM
Method: as §1, §2, §3, §4, §5, §6

[4] = target: T11, Peptidase, CTSG (Cathepsin G) (Homo sapiens, UniProt P08311); experiment: Off-target 112510; assay type: biochemical
T11 construct: purchased Eurofins Panlabs Discovery Services Taiwan, Ltd
T11 sequence (P08311 21-255): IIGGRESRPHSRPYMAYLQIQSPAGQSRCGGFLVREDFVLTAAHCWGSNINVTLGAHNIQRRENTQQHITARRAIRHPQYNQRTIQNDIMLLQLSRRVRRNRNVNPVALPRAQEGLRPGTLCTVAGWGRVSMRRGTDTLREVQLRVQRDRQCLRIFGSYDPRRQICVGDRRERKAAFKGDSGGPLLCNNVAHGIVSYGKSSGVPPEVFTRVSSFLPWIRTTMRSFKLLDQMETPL
Method: as §1, §2, §7, §6, §8, §9

[5] = test system: panel of 87 enzymes, receptors, or ion channels; experiment: Off-target panel of 87 enzymes, receptors, or ion channels; assay type: biochemical; conditions: 10 µM
Method: as §1, §2, §7, §6, §8, §9

Sodium Channel, Site 2 = experiment: Off-target 279510; assay type: binding, Rat; conditions: 10 µM
Method: as §1, §2, §3, §4, §5, §6

[6] = test system: Glutamate, NMDA, Phencyclidine; experiment: Off-target 233000; assay type: binding, Rat; conditions: 10 µM
Method: as §1, §2, §7, §6, §8, §9

Glutamate, NMDA, Glycine = Glutamate, NMDA, Glycine (Rattus norvegicus, UniProt P35439); experiment: Off-target 232910; assay type: binding
Sequence of Glutamate, NMDA, Glycine (P35439 394-800 limits assumed): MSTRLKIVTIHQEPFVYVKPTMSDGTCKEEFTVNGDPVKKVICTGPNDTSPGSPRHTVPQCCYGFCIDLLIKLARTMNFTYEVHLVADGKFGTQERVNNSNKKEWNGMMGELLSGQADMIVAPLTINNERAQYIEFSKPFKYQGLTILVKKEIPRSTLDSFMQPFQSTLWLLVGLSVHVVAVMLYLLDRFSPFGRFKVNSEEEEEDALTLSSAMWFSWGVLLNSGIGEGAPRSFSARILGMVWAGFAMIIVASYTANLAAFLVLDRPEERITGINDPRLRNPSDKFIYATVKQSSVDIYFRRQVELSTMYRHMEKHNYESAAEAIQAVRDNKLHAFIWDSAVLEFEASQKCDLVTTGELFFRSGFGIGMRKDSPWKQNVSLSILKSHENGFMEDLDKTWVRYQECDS
Method: as §1, §2, §3, §4, §5, §6

[7] = target: T12, (Rattus norvegicus, UniProt P43140); experiment: Off-target 203100; assay type: binding
T12 construct: purchased Eurofins Panlabs Discovery Services Taiwan, Ltd
T12 sequence (P43140 whole entry): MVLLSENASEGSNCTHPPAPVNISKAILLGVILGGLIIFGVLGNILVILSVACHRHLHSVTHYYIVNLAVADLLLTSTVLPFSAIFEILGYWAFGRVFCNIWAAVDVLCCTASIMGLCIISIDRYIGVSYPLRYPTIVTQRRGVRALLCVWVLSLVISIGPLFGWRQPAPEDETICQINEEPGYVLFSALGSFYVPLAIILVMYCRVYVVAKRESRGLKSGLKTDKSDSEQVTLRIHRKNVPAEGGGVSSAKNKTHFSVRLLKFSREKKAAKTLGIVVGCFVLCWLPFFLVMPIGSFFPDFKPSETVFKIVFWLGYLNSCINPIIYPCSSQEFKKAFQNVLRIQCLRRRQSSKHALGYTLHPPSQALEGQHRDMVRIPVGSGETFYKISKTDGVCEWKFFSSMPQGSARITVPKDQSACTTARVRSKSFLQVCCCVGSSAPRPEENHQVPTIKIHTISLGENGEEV
Method: as §1, §2, §3, §4, §5, §6

bone = experiment: Tibial bone histomorphometry, adenine model; assay type: in vivo, male Wistar rats
Method: At sacrifice the left tibia of animals of the rat model with dietary adenine/high-phosphate-induced uremia and VC was collected, fixed with 70% v/v EtOH and embedded in methyl methacrylate. The trabecular bone compartment is known to be the most metabolic active i.e. actively re-structured bone compartment in CKD. Therefore, histomorphometric and micro-computed tomography (µCT) analysis of bone was performed on the trabecular compartment. Tibial sections were Goldner-stained for histomorphometric analysis of the proximal metaphysis using the AxioVision Release 4.5 software, as described previously5. The total bone area (as percentage of total tissue area), osteoid area (as percentage of total bone area), and mineralized bone area (as percentage of total tissue area) were calculated from the primary measurements. Images of osteoclast and osteoblast were taken (Leica

T1 sequence (P32246 whole entry): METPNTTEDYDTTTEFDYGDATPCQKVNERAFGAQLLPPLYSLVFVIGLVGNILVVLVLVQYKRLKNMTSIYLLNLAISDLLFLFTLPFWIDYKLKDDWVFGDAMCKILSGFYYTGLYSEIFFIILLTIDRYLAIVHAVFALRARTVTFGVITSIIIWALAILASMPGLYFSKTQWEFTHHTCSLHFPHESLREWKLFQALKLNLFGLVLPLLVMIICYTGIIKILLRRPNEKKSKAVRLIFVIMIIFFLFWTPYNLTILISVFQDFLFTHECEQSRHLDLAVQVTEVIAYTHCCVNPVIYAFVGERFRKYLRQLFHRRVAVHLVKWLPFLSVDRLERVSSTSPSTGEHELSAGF

## COCCOCCO[C@@H]1[C@@H](OP(=O)(O)O)[C@H](OCCOCCOC)[C@@H](OP(=O)(O)O)[C@@H](OP(=O)(O)O)[C@H]1OP(=O)(O)O [(OEG2)2-IP4, 4,6-Di-O-(methoxy-diethyleneglycol)-myo-inositol-1,2,3,5-tetrakis(phosphate)]
Chemokine CCR1
  inhibition at 10 µM: -2%
[1]
  inhibition at 10 µM: 1%
Opiate δ1 (OP1, DOP)
  inhibition at 10 µM: -2%
Cyclooxygenase COX-2
  inhibition at 10 µM: 8%
Cyclooxygenase COX-1
  inhibition at 10 µM: -2%
Dopamine D2S
  inhibition at 10 µM: 7%
Tachykinin NK1
  inhibition at 10 µM: -14%
Melanocortin MC1
  inhibition at 10 µM: 9%
[2]
  inhibition at 10 µM: 8%
[3]
  inhibition at 10 µM: 19%
Potassium Channel [KATP]
  % Inhibition: 14%
[4]
  inhibition at 10 µM: 23%
[5]
  off-target activity in 87 biochemical assays: did not significantly inhibit or stimulate any
Sodium Channel, Site 2
  % Inhibition: -1%
[6]
  % Inhibition: 7%
Glutamate, NMDA, Glycine
  inhibition at 10 µM: 6%
[7]
  inhibition at 10 µM: 1%
bone; 5, 15, 50 mg/kg/day
  % bone area compared with vehicle: significantly higher
bone; rat, in vivo
  osteoblast and osteoclast morphology: not impacted
bone; treatment groups
  osteoid area: distinct increase in the osteoid area
bone; various doses tested
  mineralized trabecular bone area: unchanged mineralized trabecular bone area
